Test results reported in PubChem BioAssay (NCI).
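Where inhibition never reached the appropriate level, the endpoint shown equals the highest concentration tested. Otherwise, values were interpolated linearly from a five-concentration, 48-hour dose response in 96-well plates. GI50 marks 50% less growth. TGI denotes the concentration required for complete inhibition of growth.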

Tests used:
Test in all cases: DTP human tumour cell line panel, 48 h
786-0 renal = tested on: 786-0 renal
BT-549 breast = tested on: BT-549 breast
IGROV1 ovarian = tested on: IGROV1 ovarian
MALME-3M melanoma = tested on: MALME-3M melanoma
NCI-H460 lung = tested on: NCI-H460 lung
NCI-H522 lung = tested on: NCI-H522 lung
NCI/ADR-RES ovarian = tested on: NCI/ADR-RES ovarian
SF-268 CNS = tested on: SF-268 CNS
SN12C renal = tested on: SN12C renal
UO-31 renal = tested on: UO-31 renal

CC[C@@H](C(=O)[C@H](C)[C@H](O)[C@@H](C)[C@H]1O[C@H]([C@@H](CC)C(=O)O)CC[C@H]1C)C1O[C@]2(C=C[C@@H](O)[C@]3(CC[C@@](C)([C@H]4CC[C@](O)(CC)[C@H](C)O4)O3)O2)[C@H](C)C[C@@H]1C (stereo not given in full)
GI50 (786-0 renal): 1.26 µM
TGI (786-0 renal): 21.2 µM
GI50 (BT-549 breast): 0.239 µM
TGI (BT-549 breast): 8.63 µM
GI50 (IGROV1 ovarian): 2.07 µM
TGI (IGROV1 ovarian): > 100 µM
GI50 (MALME-3M melanoma): 0.241 µM
TGI (MALME-3M melanoma): 1.35 µM
GI50 (NCI-H460 lung): 0.4 µM
TGI (NCI-H460 lung): 10.3 µM
GI50 (NCI-H522 lung): 0.0961 µM
TGI (NCI-H522 lung): 2.51 µM
GI50 (NCI/ADR-RES ovarian): 0.562 µM
TGI (NCI/ADR-RES ovarian): > 68.2 µM
GI50 (SF-268 CNS): 1.14 µM
TGI (SF-268 CNS): 16.2 µM
GI50 (SN12C renal): 0.159 µM
TGI (SN12C renal): 16.4 µM
GI50 (UO-31 renal): 1.42 µM
TGI (UO-31 renal): 23.9 µM

O=C(O)C1C2C=CC(C2)C1C(=O)O (stereo not given)
GI50 (786-0 renal): > 100 µM
TGI (786-0 renal): > 100 µM
GI50 (BT-549 breast): > 100 µM
TGI (BT-549 breast): > 100 µM
GI50 (IGROV1 ovarian): > 100 µM
TGI (IGROV1 ovarian): > 100 µM
GI50 (MALME-3M melanoma): > 100 µM
TGI (MALME-3M melanoma): > 100 µM
GI50 (NCI-H460 lung): > 100 µM
TGI (NCI-H460 lung): > 100 µM
GI50 (NCI-H522 lung): > 100 µM
TGI (NCI-H522 lung): > 100 µM
GI50 (NCI/ADR-RES ovarian): > 100 µM
TGI (NCI/ADR-RES ovarian): > 100 µM
GI50 (SF-268 CNS): > 100 µM
TGI (SF-268 CNS): > 100 µM
GI50 (SN12C renal): > 100 µM
TGI (SN12C renal): > 100 µM
GI50 (UO-31 renal): > 100 µM
TGI (UO-31 renal): > 100 µM

Nc1ccccc1NC(=O)c1ccc(CN2CCC/C(=C\c3ccccn3)C2=O)cc1
GI50 (786-0 renal): 2.71 µM
TGI (786-0 renal): 30.2 µM
GI50 (BT-549 breast): 3.2 µM
TGI (BT-549 breast): > 100 µM
GI50 (IGROV1 ovarian): 1.1 µM
TGI (IGROV1 ovarian): > 100 µM
GI50 (MALME-3M melanoma): 1.01 µM
TGI (MALME-3M melanoma): > 100 µM
GI50 (NCI-H460 lung): 1.65 µM
TGI (NCI-H460 lung): > 100 µM
GI50 (NCI-H522 lung): 0.51 µM
TGI (NCI-H522 lung): 3.76 µM
GI50 (NCI/ADR-RES ovarian): 1.33 µM
TGI (NCI/ADR-RES ovarian): > 100 µM
GI50 (SF-268 CNS): 2.96 µM
TGI (SF-268 CNS): 13 µM
GI50 (SN12C renal): 2.59 µM
TGI (SN12C renal): > 100 µM
GI50 (UO-31 renal): 1.24 µM
TGI (UO-31 renal): 15.9 µM

COc1cc2oc(-c3ccc(O)cc3O)c(CC=C(C)C)c(=O)c2c(O)c1/C=C/C(C)C
TGI (786-0 renal): 4.53 µM
TGI (BT-549 breast): 11.4 µM
TGI (IGROV1 ovarian): 12 µM
TGI (MALME-3M melanoma): 14.2 µM
TGI (NCI-H460 lung): 14.5 µM
TGI (NCI-H522 lung): 12.1 µM
TGI (NCI/ADR-RES ovarian): 8.24 µM
TGI (SF-268 CNS): 5.52 µM
TGI (SN12C renal): 3.35 µM
TGI (UO-31 renal): 8.08 µM

CC(C)=CCC1=C(OCC(=O)O)C(=O)c2ccccc2C1=O
TGI (786-0 renal): > 100 µM
TGI (BT-549 breast): > 100 µM
TGI (IGROV1 ovarian): > 100 µM
TGI (MALME-3M melanoma): 35 µM
TGI (NCI-H460 lung): > 100 µM
TGI (NCI-H522 lung): 57.4 µM
TGI (NCI/ADR-RES ovarian): > 100 µM
TGI (SF-268 CNS): 65 µM
TGI (SN12C renal): 74.8 µM
TGI (UO-31 renal): > 100 µM

CCCCCCCCCCC/C=C\C[C@H](O)C/C=C1/C(=O)C=C[C@@H]1C/C=C\CCCC(=O)OC
GI50 (786-0 renal): 1.03 µM
TGI (786-0 renal): 3.98 µM
GI50 (BT-549 breast): 0.75 µM
TGI (BT-549 breast): 1.8 µM
GI50 (IGROV1 ovarian): 0.742 µM
TGI (IGROV1 ovarian): 2.66 µM
GI50 (MALME-3M melanoma): 0.803 µM
TGI (MALME-3M melanoma): 2.41 µM
GI50 (NCI-H460 lung): 1.11 µM
TGI (NCI-H460 lung): 3.91 µM
GI50 (NCI-H522 lung): 0.753 µM
TGI (NCI-H522 lung): 2.36 µM
GI50 (NCI/ADR-RES ovarian): 0.925 µM
TGI (NCI/ADR-RES ovarian): 2.93 µM
GI50 (SF-268 CNS): 0.939 µM
TGI (SF-268 CNS): 3.97 µM
GI50 (SN12C renal): 0.841 µM
TGI (SN12C renal): 2.29 µM
GI50 (UO-31 renal): 1.1 µM
TGI (UO-31 renal): 4.67 µM

C[N+](C)(CCCCCC[N+](C)(C)CCCN1C(=O)c2cc3ccccc3cc2C1=O)CCCN1C(=O)c2cc3ccccc3cc2C1=O
GI50 (786-0 renal): > 37.5 µM
TGI (786-0 renal): > 37.5 µM
GI50 (BT-549 breast): > 37.5 µM
TGI (BT-549 breast): > 37.5 µM
GI50 (IGROV1 ovarian): > 37.5 µM
TGI (IGROV1 ovarian): > 37.5 µM
GI50 (MALME-3M melanoma): > 37.5 µM
TGI (MALME-3M melanoma): > 37.5 µM
GI50 (NCI-H460 lung): > 37.5 µM
TGI (NCI-H460 lung): > 37.5 µM
GI50 (NCI-H522 lung): > 37.5 µM
TGI (NCI-H522 lung): > 37.5 µM
GI50 (NCI/ADR-RES ovarian): > 37.5 µM
TGI (NCI/ADR-RES ovarian): > 37.5 µM
GI50 (SF-268 CNS): > 37.5 µM
TGI (SF-268 CNS): > 37.5 µM
GI50 (SN12C renal): > 37.5 µM
TGI (SN12C renal): > 37.5 µM
GI50 (UO-31 renal): > 37.5 µM
TGI (UO-31 renal): > 37.5 µM

COc1cccc(-n2cc(-c3nc(Nc4cc(C)[nH]n4)c4ccccc4n3)nn2)c1
GI50 (786-0 renal): 2.89 µM
TGI (786-0 renal): 9.85 µM
GI50 (BT-549 breast): 7.04 µM
TGI (BT-549 breast): 13.5 µM
GI50 (IGROV1 ovarian): 1.69 µM
TGI (IGROV1 ovarian): 10.1 µM
GI50 (MALME-3M melanoma): 5.31 µM
TGI (MALME-3M melanoma): 13.7 µM
GI50 (NCI-H460 lung): 2.65 µM
TGI (NCI-H460 lung): 11.3 µM
GI50 (NCI-H522 lung): 3.38 µM
TGI (NCI-H522 lung): 10.2 µM
GI50 (NCI/ADR-RES ovarian): 0.234 µM
TGI (NCI/ADR-RES ovarian): 12.5 µM
GI50 (SF-268 CNS): 5.39 µM
TGI (SF-268 CNS): 13.8 µM
GI50 (SN12C renal): 3.04 µM
TGI (SN12C renal): 12.4 µM
GI50 (UO-31 renal): 0.187 µM
TGI (UO-31 renal): 5.39 µM

C[C@]12CC[C@H]3[C@@H](CCC4=CC(=O)CC[C@@]43C)[C@@H]1CC[C@@H]2C(=O)COS(=O)(=O)c1ccc(Br)cc1
TGI (786-0 renal): > 22.4 µM
TGI (BT-549 breast): 50.5 µM
TGI (IGROV1 ovarian): 3.28 µM
TGI (MALME-3M melanoma): 12.7 µM
TGI (NCI-H460 lung): 22.2 µM
TGI (NCI-H522 lung): 2.97 µM
TGI (NCI/ADR-RES ovarian): > 100 µM
TGI (SF-268 CNS): 34.6 µM
TGI (SN12C renal): 34.3 µM
TGI (UO-31 renal): 3.5 µM
